From patent publication US11634396B2 (priority 2021, dated 2023) come the findings set out here.

Structures are written as SMILES. Read-outs that look alike come from different tables or passages of the source. Bounds are passed on as bounds.

In this test the target is human mOR (Homo sapiens (Human), UniProt P35372). Kind of test: cell-based.
Where [1] appears, read: CHO Tag-lite human mOR stable cell line, forskolin 4 μM and DAMGO at EC90, read-out: mOR cAMP Antagonist Assay IC50.

Sequence of human mOR (P35372 whole entry): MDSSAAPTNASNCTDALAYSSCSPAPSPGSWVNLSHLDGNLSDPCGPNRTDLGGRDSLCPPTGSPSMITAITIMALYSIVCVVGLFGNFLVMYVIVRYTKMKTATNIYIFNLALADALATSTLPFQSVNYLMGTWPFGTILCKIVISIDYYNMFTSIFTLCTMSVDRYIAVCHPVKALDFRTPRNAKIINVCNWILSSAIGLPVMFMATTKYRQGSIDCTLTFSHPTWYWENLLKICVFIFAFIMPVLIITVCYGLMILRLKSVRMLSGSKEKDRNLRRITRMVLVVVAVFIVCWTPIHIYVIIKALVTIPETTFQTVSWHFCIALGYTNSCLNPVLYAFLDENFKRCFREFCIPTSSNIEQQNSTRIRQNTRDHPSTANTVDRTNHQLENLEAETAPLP

On to `COc1ccc(C(CC(=O)NC[C@H](Cc2c(C)cc(O)cc2C)N(C)C)C2(C(F)(F)F)CC2)cn1` (stereo partly drawn) [Compound 244, N-((S)-2-(dimethylamino)-3-(4-hydroxy-2,6-dimethylphenyl)propyl)-3-(6-methoxypyridin-3-yl)-3-(1-(trifluoromethyl)cyclopropyl) propanamide], for which the IC50 was under 300 nM. Still for that read-out and setting: the same measure for `Cc1cc(O)cc(C)c1C[C@@H](CNC(=O)C[C@H](c1cncc(Cl)c1)C1(C(F)(F)F)CC1)N(C)C` [Compound 245, (R)-3-(5-chloropyridin-3-yl)-N-((S)-2-(dimethylamino)-3-(4-hydroxy-2,6-dimethylphenyl)propyl)-3-(1-(trifluoromethyl)cyclopropyl)propanamide]: under 300 nM; for `Cc1cc(O)cc(C)c1C[C@@H](CNC(=O)CC(c1ncc(Cl)cn1)C1(C(F)(F)F)CC1)N(C)C` (stereo partly drawn) [Compound 246, 3-(5-chloropyrimidin-2-yl)-N-((S)-2-(dimethylamino)-3-(4-hydroxy-2,6-dimethylphenyl)propyl)-3-(1-(trifluoromethyl)cyclopropyl)propanamide]: under 300 nM. Still for that read-out and setting: under `Cc1cc(O)cc(C)c1C[C@@H](CNC(=O)CC(c1cncc(F)c1)C1(C(F)(F)F)CC1)N(C)C` (stereo partly drawn) [Compound 247, N-((S)-2-(dimethylamino)-3-(4-hydroxy-2,6-dimethylphenyl)propyl)-3-(5-fluoropyridin-3-yl)-3-(1-(trifluoromethyl)cyclopropyl)propanamide] stands under 300 nM. In the case of `Cc1cc(O)cc(C)c1C[C@@H](CNC(=O)C1CC1c1ncccn1)N(C)C` (stereo partly drawn) [Compound 248, N-((S)-2-(dimethylamino)-3-(4-hydroxy-2,6-dimethylphenyl)propyl)-2-(pyrimidin-2-yl)cyclopropane-1-carboxamide], the IC50 under setting [1] lay within 300 to 3000 nM.

As for `Cc1cc(O)cc(C)c1C[C@@H](CNC(=O)CC(c1ccc(C(F)(F)F)nc1)C1(C(F)(F)F)CC1)N(C)C` (stereo partly drawn) [Compound 249, N-((S)-2-(dimethylamino)-3-(4-hydroxy-2,6-dimethylphenyl)propyl)-3-(1-(trifluoromethyl)cyclopropyl)-3-(6-(trifluoromethyl)pyridin-3-yl)propanamide], the IC50 is under 300 nM. Consider `Cc1cc(O)cc(C)c1C[C@@H](CNC(=O)C[C@H](C)c1ccc(Cl)cc1)N(C)C` [Compound 250, (S)-3-(4-chlorophenyl)-N-((S)-2-(dimethylamino)-3-(4-hydroxy-2,6-dimethylphenyl)propyl)butanamide], for which the IC50 under setting [1] lay in the range of 300 to 3000 nM.

`CC[C@H](CC(=O)NC[C@H](Cc1c(C)cc(O)cc1C)N(C)C)c1cnc(C)s1` [Compound 252, (R)-N-((S)-2-(dimethylamino)-3-(4-hydroxy-2,6-dimethylphenyl)propyl)-3-(2-methylthiazol-5-yl)pentanamide]: the IC50 is under 300 nM. The same measure, in the same setting: the same measure for `Cc1ncc([C@@H](CC(=O)NC[C@H](Cc2c(C)cc(O)cc2C)N(C)C)C2CC2)s1` [Compound 253, (S)-3-cyclopropyl-N-((S)-2-(dimethylamino)-3-(4-hydroxy-2,6-dimethylphenyl)propyl)-3-(2-methylthiazol-5-yl)propanamide]: under 300 nM; for `Cc1ncc(C(CC(=O)NC[C@H](Cc2c(C)cc(O)cc2C)N(C)C)C2CC2)s1` (stereo partly drawn) [Compound 254, (S)-3-cyclopropyl-N-((S)-2-(dimethylamino)-3-(4-hydroxy-2,6-dimethylphenyl)propyl)-3-(2-methylthiazol-5-yl)propanamide]: under 300 nM.

In the case of `CN(C)[C@H](CNC(=O)C[C@H](c1cccnc1)C1(C)CC1)Cc1ccc(O)cc1C(F)(F)F` [Compound 256, (S)-N-((S)-2-(dimethylamino)-3-(4-hydroxy-2-(trifluoromethyl)phenyl)propyl)-3-(1-methylcyclopropyl)-3-(pyridin-3-yl)propanamide], the IC50 was under 300 nM.

For orientation: IC50 means the concentration that gives 50% inhibition.
